Square brackets hold non-standard residues; d marks the D form. Peptide text beside a SMILES is read from it.
How the values were obtained:
[1] = Saturated solubility of CyPep-1 in liquid excipients; format: physicochemical; details: 25° C.
Experimental: A sample of the saturated supernatant was examined using light microscopy with a magnification of 200-1000× using a LEICA® (Germany) DME light microscope. The saturated supernatant was mounted on a microscope slide and examined immediately using both polarised and non-polarised light for the presence of CyPep-1 crystals. The dilution (Step (vii)) was performed immediately after the centrifugation step. • (vii) Since the solubility of CyPep-1 in these excipients was unknown, an appropriate dilution was made to achieve a concentration of CyPep-1 in sample diluent (deionised water) that was above the limit of quantification of the HPLC method, prior to analysis. For excipients which were saturated following the addition of ca. 20 mg of CyPep-1 the following dilution was performed: • (a) Into a 10 mL volumetric flask ca. 50 mg of the saturated solution was weighed. • (b) The volumetric flask from Step (a) was made to volume with sample diluent (deionised water) and vortex mixed for 30 s. • (c) An aliquot of the diluted sample from Step (b) was transferred to an HPLC vial and analysed by HPLC as described above. • (viii) For excipients which were saturated following the addition of ca. 40 mg of CyPep-1 the dilution was performed as detailed in Step (vii), however a 20 mL volumetric flask was used. Stability Testing—Method

[2] = system: neoplastic cells; details: as shown in WO 2011/092347; cited from earlier work
[3] = Short-term stability testing: percentage recovery of CyPep-1 from formulations; details: 40° C., t=2 weeks
Experimental: HPLC was performed using a PHENOMENEX® (USA) KINETEX® C18 5 μm 100 Å 4.6×250 mm column and a PHENOMENEX® SecurityGuard C18 5 μm guard column, as follows:
The optimal extraction method developed was performed as follows: • (i) 150 mg formulation was weighed into a 10 ml volumetric flask. • (ii) The flask was made up to volume with 50:50 v/v water:ethanol. • (iii) The volumetric flask was vortex-mixed for 30 s to disperse the formulation, yielding an extraction solution containing CyPep-1 at a concentration of 150 μg/ml. • (iv) A PTFE magnetic stirrer was added to the volumetric flask from Step (iii) and the contents of the volumetric flask was stirred for 2 h at 500 rpm. • (v) The extraction solution from Step (iv) was transferred to centrifuge tubes and the samples were centrifuged at 16,000×g for 10 min at 25° C. • (vi) The supernatant was filtered using a 0.2 μm PTFE filter.
The obtained, filtered solution was used for HPLC analysis.
The 10 formulations described above which were not discarded were taken into stability testing. Samples of the formulations were stored at 2-8° C., 25° C. and 40° C. After 2 weeks, samples stored at 25° C. and 40° C. were assessed; after 4 weeks and 11 weeks samples stored at 2-8° C. and 25° C. were assessed.
Stability of CyPep-1 in each formulation was determined based on how much CyPep-1 could be recovered at each time point at each temperature. […]

Structure (SMILES): CC[C@@H](C)[C@@H](NC(=O)[C@@H](C)NC(=O)[C@@H](CCCCN)NC(=O)[C@@H](C)NC(=O)[C@H](NC(=O)[C@@H](CCCNC(=N)N)NC(=O)[C@@H](CC(C)C)NC(=O)[C@H](NC(=O)[C@@H](CCCCN)NC(=O)CNC(=O)[C@@H](CCCNC(=N)N)NC(=O)[C@@H](CCCNC(=N)N)NC(=O)[C@@H](CCCNC(=N)N)NC(=O)[C@@H](CCC(N)=O)NC(=O)[C@@H](CCCNC(=N)N)NC(=O)[C@@H](CCCNC(=N)N)NC(=O)[C@@H](CCCCN)NC(=O)[C@@H](CCCCN)NC(=O)[C@@H](CCCNC(=N)N)NC(=O)CNC(=O)[C@H](N)Cc1ccc(O)cc1)[C@H](C)O)C(C)C)C(=O)N[C@H](Cc1ccc(O)cc1)C(=O)N[C@H](CCCCN)C(=O)N[C@H](CCCNC(=N)N)C(=O)N[C@H](Cc1ccc(O)cc1)C(=O)N[C@@H](C(=O)N[C@H](CCC(=O)O)C(=O)O)[C@H](C)CC [CyPep-1] (H-[dY]G[dR][dK][dK][dR][dR][dQ][dR][dR][dR]G[dK][dT][dL][dR][dV][dA][dK][dA][dI][dY][dK][dR][dY][dI][dE]-OH; N-terminus and C-terminus assumed)
- saturated solubility of CyPep-1 ([1]; benzyl alcohol): more than 10 % w/w
- saturated solubility of CyPep-1 ([1]; deionised water (pH 4, 5, 6 or 7)): more than 10 % w/w
- saturated solubility of CyPep-1 ([1]; ethanol): more than 10 % w/w
- saturated solubility of CyPep-1 ([1]; phenoxyethanol): more than 10 % w/w
- cytotoxicity to neoplastic cells [2]: selectively cytotoxic
- stability of CyPep-1 in cream and ointment formulations [3]: unstable
